US20110138488A1, “DEFICIENCY IN THE HISTONE DEMETHYLASE JHDM2A RESULTS IN IMPAIRED ENERGY EXPENDITURE AND OBESITY” (priority 2008, published 2011)

What was measured:
primary myotubes = experiment: AICAR-induced respiration (oxygen consumption) in primary myotubes; assay type: cell-based, mouse; conditions: wild-type (Jhdm2a+/+) primary myotubes, 500 μM AICAR for 16 hours
Protocol: Jhdm2a^+/+ and Jhdm2a^−/− primary myotubes were treated with 500 μM AICAR for 16 hours. Rates of oxygen consumption were normalized to cell counts. *p<0.05. The effect of Jhdm2a deficiency on energy expenditure was analyzed. Systemic energy expenditure includes basal metabolic rate, physical activity, and adaptive thermogenesis (Spiegelman, Cell 104, 531 (2001)). Metabolic studies were performed using TSE LabMaster calorimetry Module (TSE-System) in the Clinical Nutrition Research Unit at the University of North Carolina. For respiration measurements, cultured cells were resuspended in PBS. Oxygen consumption was measured using a Clarke-type electrode (Diamond General) at baseline, and after treatment with 10 μM isoproterenol (ISO) (Wu, Cell 98, 115 (1999)). For normalization of the respiration rates, an aliquot of the cells was lysed and protein concentration was measured. […] The decreased energy expenditure of the Jhdm2a KO mice was not a result of abnormal metabolic hormone secretion. […] Activation of AMPK signaling was determined by treating C2C12 myotubes with 800 μM AICAR (Sigma Aldrich) for 16 hours. […] To gain further support for the involvement of JHDM2A in AMPK-mediated mitochondrial function, the effect of Jhdm2a-deficiency on AMPK activation-mediated respiration in primary myotubes was measured.

PGC-1α promoter = conditions: control C2C12 cells, AICAR treatment
Protocol: Wild-type and Jhdm2a knock-down C2C12 myotubes with or without AICAR treatment were used for ChIP followed by qPCR. Antibodies against H3K9me1 and H3K9me2 were used in the ChIP assays. Results were normalized to input, and are shown as fold of enrichment relative to that in the wild-type C2C12 cells without AICAR treatment. *p<0.05.
To determine whether PGC-1α is a direct target of JHDM2A, ChIP assays were performed. Ctrl or Jhdm2a KD C2C12 myotubes with or without AICAR treatment were used for ChIP analysis with histone modification-specific antibodies and anti-JHDM2A as described previously (Okada, Nature 450, 119 (2007)).

HIB1B cells = experiment: qRT-PCR and western blot of Jhdm2a in HIB1B cells after ISO; assay type: cell-based
Protocol: Given that cold-induced Ucp1 upregulation is intact in the PPARα-deficient mice (Kersten, et al., J. Clin. Invest. 103:1489 (1999)), the possibility was explored that Jhdm2a directly regulates Ucp1 expression in response to cold exposure. To ascertain that the effect of Jhdm2a on Ucp1 expression was cell-intrinsic, short-hairpin RNA (shRNA)-mediated was performed in the brown adipose cell line HIB1B using lentivirus-based shRNA. To generate a Jhdm2a knock-down HIB1B cell line, undifferentiated cells were infected with a lentiviral virus expressing a shRNA for Jhdm2a or control. The shRNA sequence for Jhdm2a was 5′-GCAGGTGTCACTAGCCTTAAT-3′ (SEQ ID NO:76). The differentiation of HIB1B cells was performed as previously described (Ross, et al., Proc. Natl. Acad. Sci. USA 89:7561 (1992)). […] Importantly, enforced overexpression of human JHDM2A in the knock-down cells partially rescued Ucp1 expression, see FIG. 36B. […] ISO-induced upregulation of Pgcla was also maintained in HIB1B knock-down cells, see FIG. 38.

Ucp1 enhancer = experiment: ChIP analysis at the Ucp1 enhancer in HIB1B cells after ISO treatment; assay type: cell-based; conditions: control HIB1B cells
From the text: The Jhdm2a knock-down-induced increase in H3K9me2 level could be partially rescued by overexpression of JHDM2A coupled with ISO treatment. *P<0.05.
Results are normalized to IgG, and are shown as the fold-enrichment relative to that in the control cells without ISO. *P<0.05.
The possibility that Jhdm2a directly regulates Ucp1 expression was subsequently examined. […] The binding was site-specific as Jhdm2a was not detected within the Ucp1 coding region, see FIG. 39, amplicon B).
In addition to removing the repressive H3K9me2 mark at the Ucp1 enhancer, Jhdm2a could contribute to Ucp1 activation by affecting the recruitment of transcription factors and co-activators. To examine this possibility, the effect of the loss of Jhdm2a on the recruitment of transcription factors (PPARγ, Rxrα and Atf2) and co-activators (Pgc1α, CBP/p300 and Src1) was analyzed. […] However, the enhanced binding by PPARγ and Rxra disappeared in the Jhdm2a knock-down cells, see FIG. 41. Similar results were also observed for the co-activators, see FIG. 42. […] Collectively, the data herein indicate that Jhdm2a contributes to β-adrenergic-stimulated Ucp1 activation by maintaining a low level of H3K9me2 at the Ucp1 enhancer region, and by augmenting the recruitment of PPARγ and Rxrα and their co-activators to the Ucp1 enhancer element.

| SMILES | respiration (rate of oxygen consumption) (primary myotubes) | H3K9me1 and H3K9me2 levels at the PGC-1α promoter (PGC-1α promoter) | Jhdm2a messenger RNA and protein levels (HIB1B cells) | H3K9me2 levels at the Jhdm2a binding site of the Ucp1 enhancer (Ucp1 enhancer) | binding of PPARγ, Rxrα and Atf2 to the Ucp1 enhancer (Ucp1 enhancer) |
| --- | --- | --- | --- | --- | --- |
| NC(=O)c1ncn([C@@H]2O[C@H](CO)[C@@H](O)[C@H]2O)c1N [AICAR] | increased respiration | decreased | – | – | – |
| CC(C)NCC(O)c1ccc(O)c(O)c1 (centres unmarked) [ISO, isoproterenol] | – | – | upregulated | specifically decreased | increased |
